Assay results: DBAASP
In brackets after ≈: the same amount, converted by molar mass. Several values for one entry are separate records, joined by “and”; a condition that tells them apart may be missing. Equal entries are not always repeated. Blank lines part the entries; values can stand above or below the compound they belong to.

How the values were obtained:
Assay in all cases: ≥ marks a high value that may be exact or a test limit, other limits are often not marked, values filed in µg/mL are converted to µM
[1] = test system: Candida albicans ATCC 90028
[2] = test system: Enterococcus faecalis ATCC 29212
[3] = test system: Salmonella enterica subsp. enterica serovar Enteritidis
[4] = test system: Listeria ivanovii
[5] = test system: Staphylococcus aureus ST1065
[6] = test system: Escherichia coli ATCC 25922
[7] = test system: Saccharomyces cerevisiae
[8] = test system: Acinetobacter baumannii ATCC 19606
[9] = test system: Escherichia coli ML-35p
[10] = test system: Candida parapsilosis ATCC 22019
[11] = test system: Klebsiella pneumoniae ATCC 13883
[12] = test system: Staphylococcus aureus ATCC 25923
[13] = test system: Pseudomonas aeruginosa ATCC 27853
[14] = test system: Streptococcus pyogenes ATCC 19615
[15] = test system: Escherichia coli W160-37
[16] = test system: Staphylococcus aureus
[17] = test system: Candida albicans ATCC 64550
[18] = test system: Escherichia coli
[19] = test system: Staphylococcus aureus ATCC 29213
[20] = test system: Candida albicans ATCC 37092
[21] = test system: Pseudomonas syringae pv. syringae EPS 94
[22] = test system: Erwinia amylovora PMV 6076
[23] = test system: Shigella dysenteriae CMCC 51302
[24] = test system: Salmonella typhimurium CMCC 50013
[25] = test system: Streptococcus mutans
[26] = test system: Listeria monocytogenes CMCC 54002
[27] = test system: Staphylococcus aureus USA 100
[28] = test system: Pseudomonas aeruginosa H103
[29] = test system: Candida albicans
[30] = test system: Salmonella enterica serovar Typhimurium
[31] = test system: Escherichia coli UB1005
[32] = test system: Staphylococcus aureus USA 300
[33] = test system: Pseudomonas aeruginosa ATCC 9027
[34] = test system: Staphylococcus epidermidis

Structure (SMILES): CC[C@H](C)[C@H](NC(=O)CNC(=O)[C@@H](N)CCCCN)C(=O)N[C@H](C(=O)NCC(=O)N[C@@H](CCSC)C(=O)N[C@@H](CC(C)C)C(=O)NCC(=O)N[C@@H](CCCCN)C(=O)N[C@@H](CC(C)C)C(=O)N[C@@H](Cc1ccccc1)C(N)=O)C(C)C [KGIVGMLGKLF]
MIC [1]: 12 µM (≈ 13.9 µg/mL) | MIC [2]: > 200 µM | MIC [3]: ≥ 100 µM | MIC [4]: 12 µM (≈ 13.9 µg/mL) | MIC [5]: ≥ 40 µM | MIC [6]: 30 µM (≈ 34.8 µg/mL) | MIC [7]: 12 µM (≈ 13.9 µg/mL) | MIC [8]: 50 µM (≈ 58.1 µg/mL) | MIC [9]: 25 µM (≈ 29 µg/mL) | MIC [10]: ≥ 50 µM | MIC [11]: ≥ 100 µM | MIC [12]: 40 µM (≈ 46.5 µg/mL) | MIC [13]: 25 µM (≈ 29 µg/mL) | MIC [14]: ≥ 50 µM

Structure (SMILES): CC[C@H](C)[C@H](N)C(=O)N[C@@H](CC(C)C)C(=O)N1CCC[C@H]1C(=O)N[C@@H](CC(C)C)C(=O)N[C@@H](CCCCN)C(=O)N[C@@H](CC(C)C)C(=O)N1CCC[C@H]1C(=O)N[C@@H](CC(C)C)C(=O)N[C@@H](CC(C)C)C(=O)N1CCC[C@H]1C(=O)N[C@@H](Cc1c[nH]c2ccccc12)C(=O)N[C@@H](CCCN=C(N)N)C(=O)N[C@@H](CCCN=C(N)N)C(N)=O [ILPLKLPLLPWRR]
MIC [15]: 12.4 µM (≈ 20 µg/mL) | MIC [16]: 3.1 µM (≈ 5 µg/mL)

Structure (SMILES): CC[C@H](C)[C@H](NC(=O)[C@@H]1CCCN1C(=O)[C@H](CCCN=C(N)N)NC(=O)[C@@H]1CCCN1C(=O)CNC(=O)[C@@H]1CCCN1C(=O)[C@H](CCCN=C(N)N)NC(=O)[C@@H]1CCCN1C(=O)[C@H](Cc1ccccc1)NC(=O)[C@@H]1CCCN1C(=O)[C@H](CC(C)C)NC(=O)[C@@H]1CCCN1C(=O)[C@H](CCCN=C(N)N)NC(=O)[C@@H]1CCCN1C(=O)[C@@H](NC(=O)[C@@H]1CCCN1C(=O)[C@H](CCCN=C(N)N)NC(=O)[C@@H]1CCCN1C(=O)CNC(=O)[C@@H]1CCCN1C(=O)[C@H](CCCN=C(N)N)NC(=O)[C@@H]1CCCN1C(=O)[C@H](Cc1ccccc1)NC(=O)[C@@H]1CCCN1C(=O)[C@H](CC(C)C)NC(=O)[C@@H]1CCCN1)[C@@H](C)CC)C(=O)N1CCC[C@H]1C(=O)N[C@@H](CCCN=C(N)N)C(=O)N1CCC[C@H]1C(=O)O [PLPFPRPGPRPIPRPLPFPRPGPRPIPRP]
MIC [19]: 30.5 µM (≈ 99.8 µg/mL) | MIC [6]: 5.84 µM (≈ 19.1 µg/mL) | MIC [20]: 0.5 µM (≈ 1.64 µg/mL)

Structure (SMILES): CC[C@H](C)[C@H](NC(=O)[C@H](CCCCN)NC(=O)[C@H](CCCCN)NC(=O)[C@H](Cc1ccccc1)NC(=O)[C@H](CC(C)C)NC(=O)[C@H](CCCCN)NC(=O)[C@H](CCCCN)NC(=O)[C@H](C)NC(=O)[C@@H]1CCCN1C(=O)CNC(=O)[C@H](C)NC(=O)[C@H](CC(C)C)NC(=O)[C@H](Cc1ccc(O)cc1)NC(=O)[C@H](CCCCN)NC(=O)[C@H](CC(C)C)NC(=O)[C@@H](NC(=O)[C@H](CCCCN)NC(=O)[C@H](CCCCN)NC(=O)[C@H](Cc1ccccc1)NC(=O)[C@H](CC(C)C)NC(=O)[C@H](CCCCN)NC(=O)[C@@H](N)CCCCN)[C@@H](C)CC)C(=O)N[C@@H](CC(C)C)C(=O)N[C@@H](CCCCN)C(=O)N[C@@H](Cc1ccc(O)cc1)C(=O)N[C@@H](CC(C)C)C(=O)O [KKLFKKILKYLAGPAKKLFKKILKYL]
MIC [21]: 3.54 µM (≈ 11 µg/mL) | MIC [22]: 3.54 µM (≈ 11 µg/mL)

Structure (SMILES): CC[C@H](C)[C@H](NC(=O)CNC(=O)[C@H](CCCCN)NC(=O)[C@H](C)NC(=O)[C@@H](N)Cc1ccccc1)C(=O)N[C@@H](C)C(=O)NCC(=O)N[C@@H](CCSC)C(=O)N[C@@H](C)C(=O)NCC(=O)N[C@@H](CCCCN)C(=O)N[C@@H](CC(C)C)C(=O)N[C@@H](Cc1ccccc1)C(N)=O [FAKGIAGMAGKLF]
MIC [1]: ≥ 200 µM | MIC [2]: > 200 µM | MIC [3]: ≥ 200 µM | MIC [4]: ≥ 200 µM | MIC [5]: ≥ 200 µM | MIC [6]: > 200 µM | MIC [7]: ≥ 200 µM | MIC [8]: > 200 µM | MIC [9]: ≥ 200 µM | MIC [10]: ≥ 200 µM | MIC [11]: ≥ 200 µM | MIC [12]: > 200 µM | MIC [13]: > 200 µM | MIC [14]: ≥ 100 µM

Structure (SMILES): CC(C)C[C@H](NC(=O)CN)C(=O)N[C@@H](CCCN=C(N)N)C(=O)N[C@@H](CCCN=C(N)N)C(=O)N[C@@H](C)C(=O)N[C@@H](CC(C)C)C(=O)N[C@@H](CC(C)C)C(=O)N[C@@H](CCCN=C(N)N)C(=O)N[C@@H](CC(C)C)C(=O)N[C@@H](CC(C)C)C(=O)N[C@@H](CCCN=C(N)N)C(=O)N[C@@H](CO)C(=O)N[C@@H](CC(C)C)C(=O)N[C@@H](CCCN=C(N)N)C(=O)N[C@@H](CCCN=C(N)N)C(=O)N[C@@H](CC(C)C)C(=O)N[C@@H](CC(C)C)C(=O)N[C@@H](CC(C)C)C(=O)N[C@@H](CCCN=C(N)N)C(=O)N[C@@H](C)C(=O)O [GLRRALLRLLRSLRRLLLRA]
MIC [23]: 8 µM (≈ 19.3 µg/mL) | MIC [24]: 4 µM (≈ 9.66 µg/mL) | MIC [19]: 32 µM (≈ 77.3 µg/mL) | MIC [6]: 8 µM (≈ 19.3 µg/mL) | MIC [25]: 8 µM (≈ 19.3 µg/mL) | MIC [26]: 16 µM (≈ 38.7 µg/mL)

Structure (SMILES): CC[C@H](C)[C@H](NC(=O)[C@H](Cc1c[nH]c2ccccc12)NC(=O)[C@H](CCCCN)NC(=O)[C@H](CCCCN)NC(=O)[C@H](CC(C)C)NC(=O)[C@H](Cc1ccccc1)NC(=O)[C@H](CCCCN)NC(=O)[C@H](CCCCN)NC(=O)[C@H](CC(C)C)NC(=O)[C@H](CC(C)C)NC(=O)[C@H](CCCCN)NC(=O)[C@@H]1CCCN1)C(=O)NCC(=O)O [PKLLKKFLKKWIG]
MIC [15]: 24 µM (≈ 38.4 µg/mL) | MIC [16]: 13 µM (≈ 20.8 µg/mL)

More lines, now with the values ahead:

MIC [17]: ≥ 100 µM | MIC [18]: 3 µM (≈ 4.75 µg/mL) | MIC [12]: 3 µM and 6 µM
Structure (SMILES): NCCCC[C@H](NC(=O)[C@H](CCCCN)NC(=O)[C@H](CCCN=C(N)N)NC(=O)[C@H](CCCN=C(N)N)NC(=O)[C@H](Cc1c[nH]c2ccccc12)NC(=O)[C@H](Cc1c[nH]c2ccccc12)NC(=O)[C@H](CCCN=C(N)N)NC(=O)[C@H](CCCCN)NC(=O)[C@H](Cc1c[nH]c2ccccc12)NC(=O)[C@@H](N)CCCN=C(N)N)C(N)=O [RWKRWWRRKK]

MIC [19]: 0.81 µM (≈ 1.76 µg/mL) | MIC [6]: 0.89 µM (≈ 1.93 µg/mL) | MIC [20]: 1.05 µM (≈ 2.28 µg/mL)
Structure (SMILES): CC[C@H](C)[C@H](NC(=O)[C@H](CCCN=C(N)N)NC(=O)[C@@H](N)CCCN=C(N)N)C(=O)N[C@@H](CCCN=C(N)N)C(=O)N1CCC[C@H]1C(=O)N[C@@H](CCCN=C(N)N)C(=O)N1CCC[C@H]1C(=O)N1CCC[C@H]1C(=O)N[C@@H](CCCN=C(N)N)C(=O)N[C@@H](CC(C)C)C(=O)N1CCC[C@H]1C(=O)N[C@@H](CCCN=C(N)N)C(=O)N1CCC[C@H]1C(=O)N[C@@H](CCCN=C(N)N)C(=O)N1CCC[C@H]1C(=O)N[C@@H](CCCN=C(N)N)C(=O)N1CCC[C@H]1C(=O)O [RRIRPRPPRLPRPRPRP]

MIC [1]: ≥ 100 µM | MIC [27]: 12.5 µM (≈ 14.8 µg/mL) | MIC [28]: 13.5 µM (≈ 16 µg/mL) | MIC [29]: 13.5 µM (≈ 16 µg/mL) | MIC [30]: 13.5 µM (≈ 16 µg/mL) | MIC [2]: 6.75 µM (≈ 7.99 µg/mL) | MIC [31]: 3.38 µM (≈ 4 µg/mL) | MIC [32]: 12.5 µM (≈ 14.8 µg/mL) | MIC [12]: 3.38 µM (≈ 4 µg/mL) | MIC [33]: 25 µM (≈ 29.6 µg/mL) | MIC [34]: 3.38 µM (≈ 4 µg/mL)
Structure (SMILES): CC[C@H](C)[C@H](NC(=O)[C@@H](NC(=O)[C@H](Cc1c[nH]c2ccccc12)NC(=O)[C@@H](NC(=O)[C@@H](N)CCCN=C(N)N)[C@@H](C)CC)C(C)C)C(=O)N[C@@H](CCCN=C(N)N)C(=O)N[C@@H](Cc1c[nH]c2ccccc12)C(=O)N[C@@H](CCCN=C(N)N)C(N)=O [RIWVIRWR]
